Source: patent US5980933A, “Transdermal formulation of xanomeline” (Eli Liily and Company, priority 1997, dated 1999)

Columns and labels:
[1] = test system: muscarinic receptors in the brain; test: Ex vivo 3H-pirenzepine binding in rat brain after patch application; details: after oral administration
Method: The patches prepared as stated herein were applied to rats. The rats were killed in pairs at various time points after application and the rat brains were removed and frozen. The binding of the M1 antagonist ligand, ^3 H-pirenzepine, to muscarinic receptors in the brain was determined. The decrease in binding is indicative of drug or active metabolite present in the brain. The effect of the drug after oral administration lasts less than 6 hours. The percent of control ex vivo pirenzepine binding at 6 hours was 33%, at 12 hours 15%, at 24 hours 26%, and at 48 hours 53%. The mean plasma concentration using this patch formulation was as follows: […]
The patches prepared as stated herein were applied to rats. The rats were killed in pairs at various time points after application and the rat brains were removed and frozen. The binding of the M1 antagonist ligand, ^3 H-pirenzepine, to muscarinic receptors in the brain was determined. The decrease in binding is indicative of drug or active metabolite present in the brain. The effect of the drug after oral administration lasts less than 6 hours. The percent of control ex vivo pirenzepine binding at 6 hours was 101%, at 12 hours 89%, at 24 hours 75%, and at 48 hours 105%.

[2] = Saturation limit of xanomeline in acrylic adhesive; type: physicochemical
Source text: The values had been derived from clear solutions of the drug in the adhesive. Unfortunately, the saturation limit of about 23-28% (w/w) in this polymer limits the utilization of this unexpected advantage of highly enriched xanomeline preparations. It is concluded from this unexpected results that an optimum formulation has to contain a slightly subsaturated, saturated or even supersaturated amount of xanomeline for best performance.

CCCCCCOc1nsnc1C1=CCCN(C)C1 [xanomeline, 3-[4-(hexyloxy)-1,2,5-thiadiazol-3-yl]-1,2,5,6-tetrahydro-1-methylpyridine]
duration of the effect of the drug [1]: less than 6 hours
saturation limit in this polymer [2]: 23-28 % (w/w)
